From paper PMC4942781, “A sodium channel inhibitor ISTX-I with a novel structure provides a new hint at the evolutionary link between two toxin folds” (Scientific Reports, 2016)
Entries after “also recorded” stand apart in the source; their conditions may differ. Bridge positions count the residues as written; N and C are the ends. Ends that are not written are not given here.

Assays:
hNav1.5 = assay: Whole-cell patch clamp, hNav1.5 in HEK293T cells; format: cell-based, human; settings: 10 μM ISTX-I; 50 ms step to -10 mV from -80 mV
Experimental: HEK293T (human embryonic kidney) cells were grown in DMEM containing 10% heat-inactivated FBS at 37 °C in a 5% CO2 incubator. The cDNA genes encoding human (h)Nav1.1, (h)Nav1.2, (h)Nav1.3, (h)Nav1.4, (h)Nav1.5, (h)Nav1.6 and (h)Nav1.7 were transiently transfected into HEK293T cells for electrophysiology using Lipofectamine-2000 (Invitrogen) in serum-reduced medium (Opti-MEM, Invitrogen) following the manufacturer’s instructions. The auxiliary subunits hβ1 and enhanced green florescent protein plasmids were cotransfected into HEK293T cells to increase the current density and efficiently select cells with green florescent protein for whole-cell patch-clamp recordings. After 12 h, the HEK293T cells were used for electrophysiological analysis.
(§1) DRG neurons with a large diameter (>[…]) and those with a relatively small diameter (<[…]) were chosen by measuring TTX-s and TTX-r currents, respectively. […] Potassium, calcium, and sodium currents were recorded in experimental cells using whole-cell patch-clamp recordings at room temperature, which were performed with an HEK EPC10 patch-clamp amplifier. […] Experimental data were acquired and analyzed using the programs patch master and Sigmaplot 9.0 (Sigma, USA). […]
(§2) Currents were recorded from experimental cells using whole-cell patch clamptechnique at room temperature (22–25 °C). […]

potassium channel = assay: Whole-cell patch clamp, Kv currents in DRG neurons; format: cell-based, rat; settings: 20 μM ISTX-I, 500 ms depolarized potential of +10 mV
Experimental: Rat DRG cells were acutely dissociated from adult Sprague-Dawley rats[30]. Briefly, adult rats of either sex with body weights of approximately 200 g were killed by decapitation. The dorsal root ganglia were isolated quickly from the spinal cord and then transferred into Dulbecco’s modified Eagle’s medium (DMEM) containing trypsin I (0.15 mg/mL) and collagenase II (0.3 mg/mL) for incubation with an oscillation frequency of 200 rpm at 37 °C for 20 min. The trypsin inhibitor II-S (1 mg/mL) was added to terminate the reaction. […]
as §1, §2
(pH 7.4). K+ currents were recorded using an internal solution containing the followings (in mM): KCl 140, MgCl2 2.5, HEPES 10, and EGTA 11 (pH 7.2). […]

“LCSENGDCAADECCVDTVFEGDMVTRSCEKTTGNFTECPGLTPIA (disulfide 2-14, 8-28, 13-38) [ISTX-I]” was tested, and the “effect on hNav1.5” value (hNav1.5) was “no effect” and the “effect on potassium channels” value (potassium channel) was “no obvious effects; also recorded: No effects were detected”.
